Laboratory results published in patent publication US20040132121A1, “Method of identifying antibacterial compounds” (priority 2000, published 2004).
“Also recorded” adds a separate entry of the source.

What was measured:
[1] = biological target: T1, binding of E. coli α to E. coli β (Escherichia coli, UniProt P0A988); assay: biochemical; settings: Table 21; Molsci (CMS) compounds, buffer BB37 (10 mM MnCl2); read-out: IC50 α-binding
T1 construct: made in house
Procedure: Recombinantly expressed wild type E. coli α subunit was purified and coated onto 96 well microtitre plates (Falcon flexible plates, Becton Dickinson) at 20 μg/ml in 100 mM Na2CO3, pH9.5 (50 μl/well, 4° C. overnight or 2 h, RT (RT). The plates were washed in WB3 (20 mM Tris (pH 7.5), 0.1 mM EDTA containing 0.05% v/v Tween 20). This buffer was used in all wash steps through out the assay. The plates were then blocked with “blotto” (5% skim milk powder in WB3, 100 μl/well, RT) until required. Immediately before use the plates were washed.
The purified synthetic peptides and β subunit were diluted in BB14 (20 mM Tris, pH 7.5, 10 mM MgCl2, 0.1 mM EDTA). Purified synthetic peptides with concentrations of 9.3-300 and 1000 μg/ml were allowed to complex with purified wild type β subunit (5 μg/ml) in a 96 well microtitre plate (Sarsted, Adelaide, Australia) pre-treated with “blotto” (30 min, RT). The reaction volume was 120 μl. The β subunit also was incubated in the absence of peptide or in the presence of the α subunit at 76.5 (μg/ml in BB14. All samples were incubated for 1 h (RT). Two 50 μl samples were transferred from each well to a corresponding well of the washed and “blocked” α subunit coated plates, and further incubated for 30 min (RT).
The plates were washed and treated with rabbit serum raised to the β subunit. The anti-serum was diluted 1:1000 in WB3 containing 10% “blotto”, dispensed at 50 μl/well and incubated for 12 min (RT). The plates were washed again and treated with sheep anti-rabbit Ig-HRP conjugate (Silenus, Melbourne, Australia) diluted 1:1000 in WB3 containing 10% “blotto” (50 μl/well). The plate was incubated for 12 min (RT). After a final washing step, 1 mM 2,2′-azino-bis (3-ethylbenzthiazoline-6-sulfonic acid) was added (110 μl/well). Colour development was assessed at 405 nm using a plate reader (Multiskan Ascent, Labsystems, Sweden).
For the CMS compounds in the of α:β assays, buffer BB37 replaced buffer BB14. Buffer BB37 contains 10 mM MnCl2 instead of the 10 mM MgCl2 used in BB14. The buffer conditions were changed to improve the reproducibility and sensitivity of the α:β binding assay.
Compounds from the CMS library were dissolved in DMSO at 1 mg/ml in a 96 well tray format. A corresponding slave plate was prepared by adding 115 μl of BB37. Dissolved compounds (5 μl) from the master plate was added to the corresponding well in slave plates giving a final concentration of 41.7 μg/ml.
Compounds were assayed for inhibition of the binding of E. coli α to E. coli β as described in Example 13.
Peptides were assayed for inhibition of the binding of E. coli α to E. coli β as described in Example 6 with the exception that buffer BB37 replaced buffer BB14 in the alpha:beta binding assay. As noted above, BB37 contains 10 mM MnCl2 instead of 10 mM MgCl2 used in BB14. Again, the change in buffer conditions was made to improve the reproducibility and sensitivity of the α:β binding assay.

[2] = biological target: binding of E. coli δ to E. coli β (Escherichia coli, UniProt P0A988); assay: biochemical; settings: for IC50: IC50 δ-binding, Table 21
[3] = tested on: Enterococcus faecalis ATCC 33186; assay: Bacterial growth inhibition screen (A620); assay type: cell-based; settings: overnight 35° C.; for inhibition at 50 µg/mL: ATCC33186, compound 50 μg/ml, read-out: inhibition of growth of E. faecalis
Procedure: (§1) Compounds with high similarity scores, or at the intersection of the results of searches using a number of different approaches, and available from the NCI or Molecular Science libraries were obtained and screened for inhibition of growth of E. coli ATCC 35218, Klebsiella pneumoniae ATCC 13885, Pseudomonas aeruginosa ATCC 27853, Staphylococcus aureus ATCC 25923 and Enterococcus faecalis ATCC 33186 as follows. Compounds were supplied dissolved in DMSO at 1 mg/ml in a 96 well tray format. Six corresponding slave plates were prepared by adding 85 μl of sterile water, and 100 μl of two times Muller Hinton broth. Dissolved compounds (5 μl) from the master plate was added to the corresponding well in slave plates giving a final concentration of 50 μg/ml.
(§2) Plates were then transferred to a PC2 Laboratory for inoculation with selected bacterial strains. The strains are freshly grown and diluted in normal saline to 0.5 McFarland Standard (NCCLS Performance standard for Dilution Antimicrobial Susceptibility Testing M7-A4 January 1997). This solution was further diluted 1:10 in normal saline to form the bacterial inoculation culture. 10 μl was used to inoculate each well. Plates were covered and placed in a 35° C. incubator over night before A620 was determined. Tetracycline was used as a standard antimicrobial compound.

[4] = tested on: Staphylococcus aureus ATCC 25923; assay: Bacterial growth inhibition screen (A620); assay type: cell-based; settings: overnight 35° C.; for inhibition at 50 µg/mL: ATCC25923, compound 50 μg/ml, read-out: inhibition of growth of S. aureus
Procedure: as §1, §2

E. coli ATCC 35218 = assay: Bacterial growth inhibition screen (A620); assay type: cell-based; settings: Escherichia coli, ATCC35218, test conc 35 μg/ml, overnight 35° C., read-out: percent growth inhibition E. coli
Procedure: as §1, §2

[5] = tested on: Klebsiella pneumoniae ATCC 13885; assay: Bacterial growth inhibition screen (A620); assay type: cell-based; settings: ATCC13885, test conc 35 μg/ml, overnight 35° C., read-out: percent growth inhibition K. pneumoniae
Procedure: as §1, §2

[6] = tested on: Pseudomonas aeruginosa ATCC 27853; assay: Bacterial growth inhibition screen (A620); assay type: cell-based; settings: ATCC27853, test conc 35 μg/ml, overnight 35° C., read-out: percent growth inhibition P. aeruginosa
Procedure: as §1, §2

Sequence of binding of E. coli δ to E. coli β (P0A988 whole entry): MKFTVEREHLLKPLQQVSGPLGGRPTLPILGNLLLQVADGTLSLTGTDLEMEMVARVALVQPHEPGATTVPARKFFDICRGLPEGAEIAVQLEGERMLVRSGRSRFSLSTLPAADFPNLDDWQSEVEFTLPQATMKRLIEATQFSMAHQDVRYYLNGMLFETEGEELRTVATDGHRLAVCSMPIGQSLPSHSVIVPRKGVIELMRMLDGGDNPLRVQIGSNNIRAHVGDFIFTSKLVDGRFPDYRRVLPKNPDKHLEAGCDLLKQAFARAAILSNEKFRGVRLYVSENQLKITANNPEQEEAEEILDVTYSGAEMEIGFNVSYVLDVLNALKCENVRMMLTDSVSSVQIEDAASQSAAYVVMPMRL
T1 sequence (P0A988 whole entry): as above

Row | SMILES | IC50 [1] [µM] | IC50 [2] [µM] | inhibition of the binding of δ to β ([2]; plate binding assay as in Example 6) | inhibition at 50 µg/mL [3] [%] | inhibition at 50 µg/mL [4] [%] | inhibition at 35 µg/mL (E. coli ATCC 35218) [%] | inhibition at 35 µg/mL ([3]; ATCC33186, test conc 35 μg/ml, A620, read-out: percent growth inhibition E. faecalis) [%] | inhibition at 35 µg/mL [5] [%] | inhibition at 35 µg/mL [6] [%] | inhibition at 35 µg/mL ([4]; ATCC25923, test conc 35 μg/ml, A620, read-out: percent growth inhibition S. aureus) [%]
1 | CCC/C(=N\OC/C(Cl)=C/c1ccc(Cl)cc1)C1C(=O)CC(C)(C)CC1=O [AOC-07877] | 270 | 90 | significantly inhibited; also recorded: significant inhibitory activity | > 50 | > 50 |  |  |  |  | 
2 | CCC/C(=N\OC/C(C)=C(\O)c1ccc(C)cc1)C1C(=O)CC(CC)(CC)CC1=O [AOC-08944] | > 300 | > 300 |  | > 50 | > 50 |  |  |  |  | 
3 | CCC/C(=N\OC/C(Cl)=C/c1ccc(Cl)cc1)C1C(=O)CC(C)(C)CC1=O [Peptide 07877] |  |  |  |  |  | 17.6 | 59.6 | 8.3 | 3.9 | 84.7
